Common to all, as to format: ADME
Holding throughout (design): scale not given: the % may be the effect or the level left

In one data set the target is T1, CYP2C8 (Homo sapiens, UniProt P10632).
T1 sequence (P10632 whole entry): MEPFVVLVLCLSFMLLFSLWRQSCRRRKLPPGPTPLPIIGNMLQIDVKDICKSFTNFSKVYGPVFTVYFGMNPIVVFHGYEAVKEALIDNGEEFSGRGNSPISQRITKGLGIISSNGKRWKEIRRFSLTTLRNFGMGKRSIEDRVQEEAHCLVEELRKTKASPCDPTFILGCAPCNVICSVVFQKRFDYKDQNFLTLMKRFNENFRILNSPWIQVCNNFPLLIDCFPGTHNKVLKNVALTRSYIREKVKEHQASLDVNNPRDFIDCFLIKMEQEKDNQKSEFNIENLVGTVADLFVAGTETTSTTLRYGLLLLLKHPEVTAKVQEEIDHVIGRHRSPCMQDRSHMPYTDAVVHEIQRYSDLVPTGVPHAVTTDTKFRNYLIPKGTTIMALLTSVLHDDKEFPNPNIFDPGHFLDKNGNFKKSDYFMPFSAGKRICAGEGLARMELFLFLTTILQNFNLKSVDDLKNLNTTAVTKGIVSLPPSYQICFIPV
The experiment in a line: Inhibition of CYP2C8 in human liver microsomes assessed as enzyme-mediated metabolite formation at 0.1 uM using paclitaxel as substrate preincubated for 20 mins followed by substrate addition measured after 30 mins in presence of NADPH by LC-MS/MS analysis relative to control. The conditions noted are these: probe paclitaxel, read-out: Activity.

For data set [1], the target named is T2, CYP1A2 (Homo sapiens, UniProt P05177).
T2 sequence (P05177 whole entry): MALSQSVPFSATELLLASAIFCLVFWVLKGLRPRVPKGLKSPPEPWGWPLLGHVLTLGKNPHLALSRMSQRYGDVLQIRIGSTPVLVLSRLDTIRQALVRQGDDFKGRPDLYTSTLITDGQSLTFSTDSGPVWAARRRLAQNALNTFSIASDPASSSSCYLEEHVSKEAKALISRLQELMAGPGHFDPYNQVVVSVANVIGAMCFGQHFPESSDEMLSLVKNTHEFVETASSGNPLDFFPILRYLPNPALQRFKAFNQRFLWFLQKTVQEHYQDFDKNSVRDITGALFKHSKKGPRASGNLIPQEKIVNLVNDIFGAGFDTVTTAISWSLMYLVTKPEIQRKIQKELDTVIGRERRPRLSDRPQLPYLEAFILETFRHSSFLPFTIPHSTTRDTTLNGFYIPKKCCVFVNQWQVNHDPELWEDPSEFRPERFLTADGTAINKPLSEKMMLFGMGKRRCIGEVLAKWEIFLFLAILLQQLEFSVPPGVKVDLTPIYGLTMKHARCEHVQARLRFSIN
The experiment in a line: Inhibition of CYP1A2 in human liver microsomes assessed as enzyme-mediated metabolite formation at 10 uM using phenacetin as substrate preincubated for 20 mins followed by substrate addition measured after 30 mins in presence of NADPH by LC-MS/MS analysis relative to control. The conditions noted are these: probe phenacetin, read-out: Activity. (In general: Liver microsomes are vesicles of endoplasmic reticulum, rich in cytochrome P450 enzymes.)

Data set [2] deals with T3, CYP3A4 (Homo sapiens, UniProt P08684). Put plainly: Inhibition of CYP3A4 in human liver microsomes assessed as enzyme-mediated metabolite formation at 30 uM using testosterone as substrate incubated for 5 mins followed by NADPH addition measured after 30 mins by LC-MS/MS analysis relative to control. The settings on record: probe testosterone, read-out: Activity.
Another data set concerns the target T4, CYP2B6 (Homo sapiens, UniProt P20813).
T4 sequence (P20813 whole entry): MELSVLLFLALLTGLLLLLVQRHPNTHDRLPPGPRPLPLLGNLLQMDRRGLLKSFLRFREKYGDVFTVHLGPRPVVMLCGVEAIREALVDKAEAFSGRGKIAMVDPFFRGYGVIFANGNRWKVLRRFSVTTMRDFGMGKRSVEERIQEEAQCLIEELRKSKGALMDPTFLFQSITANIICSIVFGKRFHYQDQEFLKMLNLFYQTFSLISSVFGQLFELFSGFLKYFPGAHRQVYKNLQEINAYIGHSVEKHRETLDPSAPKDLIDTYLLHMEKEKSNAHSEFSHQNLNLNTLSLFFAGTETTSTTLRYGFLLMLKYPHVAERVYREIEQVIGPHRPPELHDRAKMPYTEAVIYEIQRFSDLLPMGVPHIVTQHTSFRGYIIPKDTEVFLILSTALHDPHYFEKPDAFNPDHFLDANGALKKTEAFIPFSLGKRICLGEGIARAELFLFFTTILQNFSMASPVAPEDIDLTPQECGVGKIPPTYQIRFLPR
The experiment in a line: Inhibition of CYP2B6 in human liver microsomes assessed as enzyme-mediated metabolite formation at 0.1 uM using bupropion as substrate incubated for 5 mins followed by NADPH addition measured after 30 mins by LC-MS/MS analysis relative to control. The settings on record: probe bupropion, read-out: Activity.

The target of data set [3] is T3, CYP3A4. Put plainly: Inhibition of CYP3A4 in human liver microsomes assessed as enzyme-mediated metabolite formation at 30 uM using midazolam as substrate incubated for 5 mins followed by NADPH addition measured after 30 mins by LC-MS/MS analysis relative to control. The conditions noted are these: probe midazolam, read-out: Activity.
Data set [4] concerns the target T3, CYP3A4. The experiment in a line: Inhibition of CYP3A4 in human liver microsomes assessed as enzyme-mediated metabolite formation at 3 uM using midazolam as substrate incubated for 5 mins followed by NADPH addition measured after 30 mins by LC-MS/MS analysis relative to control. The settings on record: probe midazolam, read-out: Activity.
In a further data set the target is T5, CYP2A6 (Homo sapiens, UniProt P11509).
T5 sequence (P11509 whole entry): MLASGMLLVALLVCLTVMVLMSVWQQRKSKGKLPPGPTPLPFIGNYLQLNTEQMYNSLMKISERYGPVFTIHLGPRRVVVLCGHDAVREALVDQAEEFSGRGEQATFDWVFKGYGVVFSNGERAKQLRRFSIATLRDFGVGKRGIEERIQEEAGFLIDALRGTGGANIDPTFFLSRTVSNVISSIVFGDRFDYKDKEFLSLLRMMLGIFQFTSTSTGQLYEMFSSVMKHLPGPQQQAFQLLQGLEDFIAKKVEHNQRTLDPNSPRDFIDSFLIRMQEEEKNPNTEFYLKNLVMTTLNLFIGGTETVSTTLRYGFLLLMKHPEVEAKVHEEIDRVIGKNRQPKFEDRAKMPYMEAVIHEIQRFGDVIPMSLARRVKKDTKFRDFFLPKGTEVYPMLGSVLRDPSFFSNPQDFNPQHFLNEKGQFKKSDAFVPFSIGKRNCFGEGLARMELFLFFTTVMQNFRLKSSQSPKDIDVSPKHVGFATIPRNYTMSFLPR
The experiment in a line: Inhibition of CYP2A6 in human liver microsomes assessed as enzyme-mediated metabolite formation at 3 uM using coumarin as substrate incubated for 5 mins followed by NADPH addition measured after 30 mins by LC-MS/MS analysis relative to control. The conditions noted are these: probe coumarin, read-out: Activity.

Data set [5] has as its target T2, CYP1A2. The experiment in a line: Inhibition of CYP1A2 in human liver microsomes assessed as enzyme-mediated metabolite formation at 3 uM using phenacetin as substrate preincubated for 20 mins followed by substrate addition measured after 30 mins in presence of NADPH by LC-MS/MS analysis relative to control. The settings on record: probe phenacetin, read-out: Activity.

Another data set concerns the target CYP2C9 (Homo sapiens, UniProt P11712). The experiment in a line: Inhibition of CYP2C9 in human liver microsomes assessed as enzyme-mediated metabolite formation at 30 uM using diclofenac as substrate incubated for 5 mins followed by NADPH addition measured after 30 mins by LC-MS/MS analysis relative to control. The settings on record: probe diclofenac, read-out: Activity.

Structures are written as SMILES.

T3 sequence (P08684 whole entry): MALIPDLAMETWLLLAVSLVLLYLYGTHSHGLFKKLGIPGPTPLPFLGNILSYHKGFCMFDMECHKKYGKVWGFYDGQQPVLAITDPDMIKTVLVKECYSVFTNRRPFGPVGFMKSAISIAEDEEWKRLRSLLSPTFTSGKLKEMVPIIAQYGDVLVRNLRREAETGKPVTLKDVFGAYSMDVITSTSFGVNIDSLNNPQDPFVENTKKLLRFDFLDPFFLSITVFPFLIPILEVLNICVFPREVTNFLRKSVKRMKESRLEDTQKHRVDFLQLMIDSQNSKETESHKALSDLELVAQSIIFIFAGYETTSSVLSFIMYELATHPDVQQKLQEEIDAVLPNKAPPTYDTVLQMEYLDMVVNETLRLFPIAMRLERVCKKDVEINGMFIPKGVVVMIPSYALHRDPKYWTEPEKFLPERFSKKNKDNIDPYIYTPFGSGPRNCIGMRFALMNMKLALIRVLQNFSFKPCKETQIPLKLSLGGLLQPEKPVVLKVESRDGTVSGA
Chain of CYP2C9 (P11712 whole entry): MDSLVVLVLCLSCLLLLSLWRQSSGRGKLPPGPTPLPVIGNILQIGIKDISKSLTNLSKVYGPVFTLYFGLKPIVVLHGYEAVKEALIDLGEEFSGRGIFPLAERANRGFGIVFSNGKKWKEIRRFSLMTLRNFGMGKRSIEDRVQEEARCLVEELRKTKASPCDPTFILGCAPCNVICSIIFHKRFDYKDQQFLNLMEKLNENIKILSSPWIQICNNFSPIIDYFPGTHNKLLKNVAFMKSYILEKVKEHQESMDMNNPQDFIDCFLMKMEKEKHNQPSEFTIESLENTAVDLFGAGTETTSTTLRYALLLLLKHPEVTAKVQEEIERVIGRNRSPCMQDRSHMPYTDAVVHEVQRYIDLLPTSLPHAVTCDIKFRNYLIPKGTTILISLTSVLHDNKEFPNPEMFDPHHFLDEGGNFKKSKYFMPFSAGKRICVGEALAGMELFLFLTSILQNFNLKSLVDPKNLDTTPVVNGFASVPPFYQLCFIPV

On to `CCCCCCCC(=O)CCc1ccc(O)c(OC)c1`, for which the activity at 0.5 h, 0.1 µM at CYP2C8 is 83.2%; at CYP2B6, 93.6%. Further, on CYP1A2 [1], the activity at 0.5 h, 10 µM was 59%. In addition, the activity at 0.5 h, 30 µM at CYP3A4 [2] amounted to 48.6%; at CYP3A4 [3] it was 72%; on CYP2C9 it was 30.9%. Further, the activity at 0.5 h, 3 µM on CYP3A4 [4] is 77.4%; on CYP2A6, 80.8%; on CYP1A2 [5] it was 76.5%.

The values above are taken from ChEMBL document CHEMBL4007467, “Effects of 6-paradol, an unsaturated ketone from gingers, on cytochrome P450-mediated drug metabolism” (Bioorg Med Chem Lett, 2017).
